Results as given in patent US11021435B2, “Serotonin receptor-targeting compounds and methods” (priority 2014, dated 2021).
“Also recorded” adds a separate entry of the source.

What was measured:
[1] = target: T1, 5-HT1A receptors (Homo sapiens, UniProt P08908); assay: Binding affinity, HEK293 cells transiently over-expressing human 5-HT1A
T1 construct: expressed in transfected cells; host or cells: HEK293, transient
T1 sequence (P08908 1-422): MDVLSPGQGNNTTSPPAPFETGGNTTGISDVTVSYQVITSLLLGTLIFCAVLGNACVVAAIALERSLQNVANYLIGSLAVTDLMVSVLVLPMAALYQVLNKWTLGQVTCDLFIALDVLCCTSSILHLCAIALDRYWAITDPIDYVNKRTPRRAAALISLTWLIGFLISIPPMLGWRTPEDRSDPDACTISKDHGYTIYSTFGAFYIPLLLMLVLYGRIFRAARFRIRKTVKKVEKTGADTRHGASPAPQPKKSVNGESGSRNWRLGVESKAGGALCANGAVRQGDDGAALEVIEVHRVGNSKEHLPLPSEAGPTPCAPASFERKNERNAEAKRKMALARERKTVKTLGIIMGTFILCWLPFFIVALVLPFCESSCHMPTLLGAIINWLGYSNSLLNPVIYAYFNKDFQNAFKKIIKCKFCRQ

[2] = target: T2, mouse 5-HT2A receptor (Mus musculus, UniProt P35363); assay: Binding affinity, HEK293 cells transiently expressing mouse 5-HT2A; details: for Ki: mouse, mean (SEM), read-out: Affinity Ki m5-HT2A
T2 construct: expressed in transfected cells; host or cells: HEK293, transient
T2 sequence (P35363 whole entry): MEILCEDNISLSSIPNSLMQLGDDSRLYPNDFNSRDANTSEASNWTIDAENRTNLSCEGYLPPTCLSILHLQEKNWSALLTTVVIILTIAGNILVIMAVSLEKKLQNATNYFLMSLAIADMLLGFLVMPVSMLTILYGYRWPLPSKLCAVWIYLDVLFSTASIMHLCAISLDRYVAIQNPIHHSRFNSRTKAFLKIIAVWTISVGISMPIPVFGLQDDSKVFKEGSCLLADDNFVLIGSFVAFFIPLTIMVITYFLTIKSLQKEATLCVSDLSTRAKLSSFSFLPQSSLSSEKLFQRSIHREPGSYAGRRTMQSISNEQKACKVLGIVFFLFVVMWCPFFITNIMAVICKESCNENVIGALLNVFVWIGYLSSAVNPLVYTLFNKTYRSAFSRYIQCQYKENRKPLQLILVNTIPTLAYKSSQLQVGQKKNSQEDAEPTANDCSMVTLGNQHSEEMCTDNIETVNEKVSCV

[3] = tested on: C57BI/6J mice; assay: DOI-elicited head-twitch response (HTR) in C57BI/6J mice; details: for DOI-elicited HTR: C57BI/6J mice, 5-FPT up to 5.6 mg/kg, AS-19 10 mg/kg, DPAT 0.5 mg/kg
From the text: The 5-HT2A receptor is a predominant 5-HT receptor in the cortex, and serves important excitation modulation functions on glutamate pyramidal and GABA neurons.

[4] = target: 5-HT2A (Homo sapiens, UniProt P28223); assay: Binding affinity, HEK293 cells transiently over-expressing human 5-HT2A; set-up: expressed in transfected cells; host or cells: HEK293, transient; details: for Ki: human, mean (SEM)
Sequence of 5-HT2A (P28223 whole entry): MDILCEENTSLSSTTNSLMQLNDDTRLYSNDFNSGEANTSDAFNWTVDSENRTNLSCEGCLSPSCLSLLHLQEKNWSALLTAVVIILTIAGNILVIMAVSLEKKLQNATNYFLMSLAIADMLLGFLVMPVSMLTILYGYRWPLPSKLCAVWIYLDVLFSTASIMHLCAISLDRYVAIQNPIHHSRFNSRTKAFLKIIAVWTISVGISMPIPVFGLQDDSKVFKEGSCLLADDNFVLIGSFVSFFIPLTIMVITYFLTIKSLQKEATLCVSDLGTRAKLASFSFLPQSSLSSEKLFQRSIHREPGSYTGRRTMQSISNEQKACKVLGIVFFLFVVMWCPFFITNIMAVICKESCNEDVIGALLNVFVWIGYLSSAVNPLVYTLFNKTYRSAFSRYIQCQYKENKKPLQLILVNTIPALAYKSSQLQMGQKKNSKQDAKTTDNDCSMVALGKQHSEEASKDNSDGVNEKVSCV

[5] = target: 5-HT2B (Homo sapiens, UniProt P41595); assay: Binding affinity, HEK293 cells transiently over-expressing human 5-HT2B; set-up: expressed in transfected cells; host or cells: HEK293, transient; details: mean (SEM)
Sequence of 5-HT2B (P41595 whole entry): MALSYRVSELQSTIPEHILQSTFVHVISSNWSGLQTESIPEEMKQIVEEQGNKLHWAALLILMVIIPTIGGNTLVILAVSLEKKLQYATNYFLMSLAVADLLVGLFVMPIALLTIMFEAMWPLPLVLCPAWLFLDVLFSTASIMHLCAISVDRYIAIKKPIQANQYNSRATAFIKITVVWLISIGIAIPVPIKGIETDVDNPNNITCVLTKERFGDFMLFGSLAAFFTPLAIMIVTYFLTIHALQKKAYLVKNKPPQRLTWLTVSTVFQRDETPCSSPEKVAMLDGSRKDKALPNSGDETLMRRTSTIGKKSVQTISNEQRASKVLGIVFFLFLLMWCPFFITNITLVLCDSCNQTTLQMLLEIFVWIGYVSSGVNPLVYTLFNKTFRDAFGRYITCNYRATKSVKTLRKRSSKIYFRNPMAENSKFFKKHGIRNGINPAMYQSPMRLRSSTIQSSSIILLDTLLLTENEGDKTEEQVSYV

[6] = target: T1, 5-HT1A receptors; assay: Functional assay at 5-HT1A, relative to 5-CT; format: cell-based
[7] = tested on: C58/J mice; assay: Idiopathic stereotypic jumping in C58/J mice; format: in vivo; details: 1 and 3 mg/kg
[8] = tested on: C57BI/6J mice; assay: MK-801-elicited stereotypic rotations in C57BI/6J mice; format: in vivo
From the text: (§1) Regarding glutamate neurotransmission in stereotypy, the NMDA receptor antagonist, MK-801, characteristically elicits stereotypic rotations that appear to mimic monogenetic stereotypy observed in Fmr1 KO mice. Furthermore, mutations and autoantibodies of the NMDA glutamate receptor that decrease its function are causally linked to ASD, intellectual disabilities, and psychiatric symptoms in humans.

[9] = tested on: C57BI/6J mice; assay: MK-801-elicited hyperlocomotion in C57BI/6J mice; format: in vivo; details: 5.6 mg/kg; MK-801 0.3 mg/kg; 30 min session
From the text: Bar graphs show the mean±SEM.
as §1

[10] = tested on: C57BI/6J mice; assay: d-amphetamine (AMP)-elicited hyperlocomotion in C57BI/6J mice; format: in vivo; details: 5.6 mg/kg; AMP 3 mg/kg; 30 min session
From the text: as §1

[11] = tested on: C58/J and C57BI/6J mice; assay: Locomotor behavior of the compound on its own (stereotypy assays); format: in vivo; details: 1, 3 and 5.6 mg/kg
From the text: Data are from stereotypy assays using C58/J (left) and C57BI/6J (right) mice. […] Bar graphs show the mean±SEM.

[12] = tested on: C57BI/6J mice; assay: Social interactions with vehicle-treated littermates and grooming; format: in vivo; details: 5.6 mg/kg
From the text: Data are from C57BI/6J mice.
(§2) Of note, after behavioral testing was complete, blind scorers categorized mice into two groups based on number of rears and initiated social interactions, and the two groups differentiated vehicle from (+)-5-FPT-treated mice with 100% accuracy.

[13] = tested on: mice; assay: Test for serotonin syndrome; format: in vivo; details: 5.6 mg/kg
From the text: as §2

[14] = Plasma and brain concentrations after subcutaneous administration; format: in vivo, mice
[15] = mean (SEM) sessions, score/6 possible
[16] = 30 min after 3.0 mg/kg subcutaneous, mean (SEM)
[17] = 60 min after 3.0 mg/kg subcutaneous, mean (SEM)

## CN(C)C1CCc2c(cccc2-c2ccccc2F)C1 (single isomer, unassigned; (-)) [(−)-5-FPT, 5-(2′-fluorophenyl)-N,N-dimethyl-1,2,3,4-tetrahydronaphthalen-2-amine]
[1]
  Affinity at 5-HT1A receptors, in words: no appreciable affinity
[2]
  Higher affinity than (+)-5-FPT at mouse 5-HT2A receptors: ~4 fold
  Ki: 147 nM
[3]; DOI 1 mg/kg
  DOI-elicited HTR: substantially less efficacious than (+)-5-FPT
[4]
  Higher affinity than (+)-5-FPT at human 5-HT2A receptors: ~8 fold
  Ki: 119 nM
[5]
  Ki: 684 nM

## CN(C)C1CCc2c(cccc2-c2ccccc2F)C1 (single isomer, unassigned; (+)) [(+)-5-FPT, 5-(2′-fluorophenyl)-N,N-dimethyl-1,2,3,4-tetrahydronaphthalen-2-amine]
[2]
  Ki: 632 nM
[6]
  Functional activity at 5-HT1A, in words: partial agonist
[6]; read-out: EMAX 5-HT1A
  Emax: 48%
[7]
  Stereotypic jumping: potently eliminated stereotypic jumping; also recorded: dose-dependently eliminates
[8]
  Stereotypic rotational behavior, compound on its own: neither (+)-5-FPT nor AMP caused stereotypic rotational behavior
[8]; 5.6 mg/kg, MK-801 0.3 mg/kg
  MK-801-elicited stereotypic rotations: significantly reduced stereotypical rotations; also recorded: significantly reduces stereotypic rotations
[9]
  MK-801 hyperlocomotion: significantly decreased hyperlocomotion; also recorded: blocks
[10]
  Amphetamine (AMP) hyperlocomotion: did not reduce hyperlocomotion; also recorded: did not significantly decrease hyperlocomotion
[3]; 5.6 mg/kg, DOI 1 mg/kg
  DOI-elicited HTR, compound given 120 min (2 hrs) before testing: remained significant; also recorded: retains efficacy
  DOI-elicited HTR, compound given 180 min (3 hrs) before testing: did not block the DOI HTR
[3]; DOI 1 mg/kg
  DOI-elicited HTR: dose-dependently attenuated the DOI-elicited HTR; also recorded: significantly attenuated the DOI HTR; also recorded: dose-dependently blocks
[3]; oral gavage 3 mg/kg 10 min prior to subcutaneous 1 mg/kg DOI
  DOI-elicited HTR after oral administration: significantly attenuated the DOI HTR; also recorded: attenuates the HTR
[11]
  Locomotor behavior, compound on its own: without altering locomotor behavior; also recorded: did not alter locomotion; also recorded: does not alter locomotor behavior
[12]
  Grooming: decreasing grooming
[12]; six one-min observation sessions
  Social interactions: significantly increased the number of initiated social interactions; also recorded: increases social interactions
[13]; mean (SEM) number of sessions of six with the behavior (score/6 possible)
  Flat Body: 0(0)
[13]; [15]
  Forepaw Tread: 0(0)
  Head Weave: 0(0)
  Moon Walk: 0.3(0.2)
  Piloerection: 0(0)
  Straub Tail: 0(0)
  Tremor: 0(0)
[13]; highest behaviorally-effective dose tested
  Symptoms of serotonin syndrome, in words: did not result in symptoms of serotonin syndrome
[14]; 30, 60 and 90 min after systemic administration
  Blood-brain barrier crossing, in words: readily crosses the blood-brain barrier
[14]; [16]
  Brain concentration: 1.78(0.24) μg/g
  Plasma concentration: 0.114(0.03) μg/mL
[14]; [17]
  Brain concentration: 2.16(0.17) μg/g
  Plasma concentration: 0.118(0.01) μg/mL
[14]; 90 min after 3.0 mg/kg subcutaneous, mean (SEM)
  Brain concentration: 1.46(0.09) μg/g
[14]; mouse, plasma, 90 min after 3.0 mg/kg subcutaneous, mean (SEM)
  concentration at 90 min: 70 ng/mL
[14]; plasma relative to brain tissue from 30 min post-administration
  Clearance in the periphery, in words: rapidly cleared in the periphery
[4]
  Affinity at 5-HT2A receptors, in words: very low
  Ki: 886 nM
[5]
  Ki: 60 nM
